These results are taken from patent US20130102595A1 (Curis, Inc., priority 2011, published 2013).

The target of experiment [1] is T1, PI3Kα (p110α/p85α) (Homo sapiens, UniProt P42336).
T1 construct: GST (N); made in house; host or cells: Baculovirus-infected Sf9 cells
The experiment in a line: PI3Kα ADP-Glo assay. Type of experiment: biochemical. As to conditions: 20 μM PIP2, 10 μM ATP, 30 minutes. The protocol:
(A) an In Vitro Assay which Determines the Ability of a Test Compound to Inhibit PI3Kα.
Activity of PI3Kα was measured using ADP-Glo assay from Promega. PI3Kα, a complex of N-terminal GST-tagged recombinant full-length human p110α (GenBank, Accession No. U79143) and N-terminal His tagged recombinant full length human p85a (GenBank Accession No. XM—043865) were co-expressed in a Baculovirus infected Sf9 cell expression system. The ADP-Glo assay was performed to measure the amount of ADP generated from ATP hydrolysis coupled with PIP2 phosphorylation by the purified recombinant PI3Kα (p110α/p85α). PI3Kα was incubated with 20 μM PIP2 substrate in the reaction buffer (50 mM HEPES, pH 7.4, 150 mM NaCl, 5 mM MgCl2, 1 mM DTT, 3 uM Naorthovanadate, 10 μM ATP and 0.5% DMSO) for 30 minutes at room temperature. The ADP generated was then detected by ADP-Glo assay from Promega, a luminescent ADP detection assay. The ADP-Glo assay is performed in two steps; first, after the kinase reaction, ADP-Glo Reagent is added to terminate the kinase reaction and deplete the remaining ATP. Second, the Kinase Detection Reagent is added to simultaneously convert ADP to ATP and allow the newly synthesized ATP to be measured using a luciferase/luciferin reaction.

For experiment [2], the system named is HDACs (HeLa cell nuclear extracts). The experiment in a line: HDAC enzymatic activity, Biomol Color de Lys system. Type of experiment: biochemical. As to conditions: 1 hour, 25° C. The protocol: (E) an In Vitro Assay which Determines the Ability of a Test Compound to Inhibit HDAC Enzymatic Activity.
HDAC inhibitory activity was assessed using the Biomol Color de Lys system (AK-500, Biomol, Plymouth Meeting, Pa.). Briefly, HeLa cell nuclear extracts were used as a source of HDACs. Different concentrations of test compounds were serially diluted in dimethylsulphoxide (DMSO) and added to HeLa cell nuclear extracts in the presence of a colorimetric artificial substrate. Final assay condition contained 50 mM Tris/Cl, pH 8.0, 137 mM NaCl, 2.7 mM KCl and 1 mM MgCl2. Reactions were carried in room temperature (25° C.) for 1 hour before addition of developer for termination. Relative enzyme activity was measured in the WALLAC Victor II 1420 microplate reader as fluorescence intensity (excitation: 350-380 nm; emission: 440-460 nm). Data were analyzed using GraphPad Prism (v4.0a) with a sigmoidal dose response curve fitting for IC50 calculation.

T1 sequence (P42336 whole entry): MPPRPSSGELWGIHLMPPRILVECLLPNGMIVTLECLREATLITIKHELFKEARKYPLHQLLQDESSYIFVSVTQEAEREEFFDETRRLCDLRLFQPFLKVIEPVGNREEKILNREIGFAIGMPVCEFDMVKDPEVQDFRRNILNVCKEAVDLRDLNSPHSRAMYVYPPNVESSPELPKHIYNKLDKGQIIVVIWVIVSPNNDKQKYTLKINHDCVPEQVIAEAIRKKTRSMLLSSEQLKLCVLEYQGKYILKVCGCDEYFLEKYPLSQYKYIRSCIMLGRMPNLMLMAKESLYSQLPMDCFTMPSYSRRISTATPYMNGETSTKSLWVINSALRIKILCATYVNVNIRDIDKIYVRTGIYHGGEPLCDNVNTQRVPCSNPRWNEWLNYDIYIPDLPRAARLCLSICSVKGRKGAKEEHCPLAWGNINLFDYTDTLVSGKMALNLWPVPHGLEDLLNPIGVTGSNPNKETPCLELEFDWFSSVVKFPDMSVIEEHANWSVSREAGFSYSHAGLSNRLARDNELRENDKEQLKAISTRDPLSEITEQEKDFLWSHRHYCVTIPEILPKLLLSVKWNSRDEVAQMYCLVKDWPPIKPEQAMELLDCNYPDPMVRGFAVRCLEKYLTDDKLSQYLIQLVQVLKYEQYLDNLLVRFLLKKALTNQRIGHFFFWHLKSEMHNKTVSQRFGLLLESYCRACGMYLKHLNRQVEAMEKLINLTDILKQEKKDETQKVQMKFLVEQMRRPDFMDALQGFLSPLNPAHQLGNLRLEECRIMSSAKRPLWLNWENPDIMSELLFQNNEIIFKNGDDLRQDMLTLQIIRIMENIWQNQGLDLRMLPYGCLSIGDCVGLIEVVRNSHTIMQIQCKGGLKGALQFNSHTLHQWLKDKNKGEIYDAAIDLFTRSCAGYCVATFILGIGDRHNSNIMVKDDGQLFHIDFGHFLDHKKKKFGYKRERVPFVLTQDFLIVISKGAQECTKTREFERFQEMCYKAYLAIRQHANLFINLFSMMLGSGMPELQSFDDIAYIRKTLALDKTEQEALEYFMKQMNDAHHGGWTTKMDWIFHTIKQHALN
T1 sequence (P27986 whole entry partner): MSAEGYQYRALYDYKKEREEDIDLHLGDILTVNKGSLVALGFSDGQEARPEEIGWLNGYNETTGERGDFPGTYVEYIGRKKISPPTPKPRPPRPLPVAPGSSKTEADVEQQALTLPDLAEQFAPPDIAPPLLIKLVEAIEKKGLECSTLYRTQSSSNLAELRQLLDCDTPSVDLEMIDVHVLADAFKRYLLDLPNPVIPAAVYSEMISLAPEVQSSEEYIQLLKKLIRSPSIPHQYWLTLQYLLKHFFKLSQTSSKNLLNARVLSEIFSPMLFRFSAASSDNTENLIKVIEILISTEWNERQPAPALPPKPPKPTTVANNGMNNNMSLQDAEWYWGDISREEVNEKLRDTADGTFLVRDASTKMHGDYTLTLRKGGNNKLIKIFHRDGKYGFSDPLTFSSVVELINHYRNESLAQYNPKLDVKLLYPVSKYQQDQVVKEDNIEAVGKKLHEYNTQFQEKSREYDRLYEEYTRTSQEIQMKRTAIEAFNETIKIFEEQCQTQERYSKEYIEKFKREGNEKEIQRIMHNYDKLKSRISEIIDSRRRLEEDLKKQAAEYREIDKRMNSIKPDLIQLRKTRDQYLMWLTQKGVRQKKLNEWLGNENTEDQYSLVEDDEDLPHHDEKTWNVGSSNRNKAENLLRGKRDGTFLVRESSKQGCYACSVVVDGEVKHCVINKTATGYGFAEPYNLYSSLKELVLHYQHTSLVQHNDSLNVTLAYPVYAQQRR

With `CNc1ccc(-c2nc(N3CCOCC3)c3sc(NS(=O)(=O)c4cccc(/C=C/C(=O)NO)c4)cc3n2)cn1` [Compound 224], the IC50 in experiment [1] and in experiment [2] was less than 0.1 µM throughout.
As to `CN(Cc1cc2nc(-c3ccc(O)nc3)nc(N3CCOCC3)c2s1)c1ncc(C(=O)NO)cn1` [Compound 254], the IC50 in experiment [1] is 0.1 to 1 µM; in experiment [2], less than 0.1 µM.
The matching figures for `O=C(/C=C/c1cccc(S(=O)(=O)Nc2cc3nc(-c4cccc5[nH]ncc45)nc(N4CCOCC4)c3s2)c1)NO` [Compound 216]: less than 0.1 µM and less than 0.1 µM.
Turning to `O=C(/C=C/c1cc2nc(-c3cccc4[nH]ncc34)nc(N3CCOCC3)c2s1)NO` [Compound 46], the figures for the IC50 in experiment [1] and in experiment [2] were 0.1 to 1 µM and 1 to 10 µM, respectively.
In the same order, the values of `O=C(NO)c1cnc(N2CCC(CNc3cc4nc(-c5cccc6[nH]ncc56)nc(N5CCOCC5)c4s3)CC2)nc1` [Compound 48] are less than 0.1 µM and less than 0.1 µM.
The matching figures for `CN(C)c1nc(-c2cccc3[nH]ncc23)nc2cc(CN(C)c3ncc(C(=O)NO)cn3)sc12` [Compound 159]: 1 to 10 µM and less than 0.1 µM.
In the same order, the values of `CC(=O)N1CCN(c2nc(-c3cccc4[nH]ncc34)nc3cc(CN(C)c4ncc(C(=O)NO)cn4)sc23)CC1` [Compound 62] are greater than 10 µM and less than 0.1 µM.
For `CN(Cc1cc2nc(-c3cccc(C(=O)OC(C)(C)C)c3)nc(N3CCOCC3)c2s1)c1ncc(C(=O)NO)cn1` [Compound 304], the IC50 was 1 to 10 µM in experiment [1] and less than 0.1 µM in experiment [2].
The matching figures for `NCCN(Cc1cc2nc(-c3cccc4[nH]ncc34)nc(N3CCOCC3)c2s1)c1ncc(C(=O)NO)cn1` [Compound 94]: less than 0.1 µM and less than 0.1 µM.
In the same order, the values of `O=C(CCCCCCNc1cc2nc(-c3cccc4[nH]ncc34)nc(N3CCOCC3)c2s1)NO` [Compound 20] are 0.1 to 1 µM and less than 0.1 µM.
In the same order, the values of `O=C(NO)c1ccc2c(ccn2Cc2cc3nc(-c4cccc5[nH]ncc45)nc(N4CCOCC4)c3s2)c1` [Compound 105] are greater than 10 µM and 0.1 to 1 µM.
Consider `COc1ccc(-c2nc(N3CCOCC3)c3sc(C(C)N(C)c4ncc(C(=O)NO)cn4)cc3n2)cn1` (centres unmarked) [Compound 247, N-hydroxy-2-((1-(2-(6-methoxypyridin-3-yl)-4-morpholino-thieno[3,2-d]pyrimidin-6-yl)ethyl)(methyl)amino)pyrimidine-5-carboxamide], for which the IC50 in experiment [1] and in experiment [2] was less than 0.1 µM in each case.
`O=C(NO)c1cc2nc(-c3cccc4[nH]ncc34)nc(N3CCOCC3)c2s1` [Compound 45]: the values for the IC50 in experiment [1] and in experiment [2] were less than 0.1 µM and greater than 10 µM, respectively.
For `COc1ccccc1Nc1nc(-c2cccc3[nH]ncc23)nc2cc(CN(C)c3ncc(C(=O)NO)cn3)sc12` [Compound 167], the IC50 in experiment [1] is 0.1 to 1 µM; in experiment [2], less than 0.1 µM.
Turning to `CCCc1nc2cc(/C=C/C(=O)NO)ccc2n1CCN(C)Cc1cc2nc(-c3ccc(N)cc3)nc(N3CCOCC3)c2s1` [Compound 324], the IC50 in experiment [1] and in experiment [2] was 0.1 to 1 µM each time.
As to `CN(Cc1cc2nc(-c3cccc4[nH]ncc34)nc(N3CCNCC3)c2s1)c1ncc(C(=O)NO)cn1` [Compound 60], the IC50 in experiment [1] was greater than 10 µM; in experiment [2] it was less than 0.1 µM.
In the same order, the values of `CN(Cc1cc2nc(-c3cccc(C(C)(C)O)c3)nc(N3CCOCC3)c2s1)c1ncc(C(=O)NO)cn1` [Compound 302] are greater than 10 µM and less than 0.1 µM.
On to `CN(Cc1cc2nc(-c3ccc4[nH]ccc4c3)nc(N3CCOCC3)c2s1)c1ncc(C(=O)NO)cn1` [Compound 192], for which the concentration for half-maximal inhibition (IC50) in experiment [1] was 0.1 to 1 µM; in experiment [2], less than 0.1 µM.
Turning to `CC(c1cc2nc(-c3ccc(N)cc3)nc(N3CCOCC3)c2s1)N(C)c1ncc(C(=O)NO)cn1` (centres unmarked) [Compound 214], the IC50 in experiment [2] was less than 0.1 µM.
Consider `COc1ccc(-c2nc(N3CCOCC3)c3sc(C(C)(C)Nc4ncc(C(=O)NO)cn4)cc3n2)cn1` [Compound 250, N-Hydroxy-2-(2-(2-(6-methoxypyridin-3-yl)-4-morpholino-thieno[3,2-d]pyrimidin-6-yl)propan-2-ylamino)pyrimidine-5-carboxamide], for which the IC50 in experiment [1] and in experiment [2] was less than 0.1 µM throughout.
On to `CN(c1ncc(C(=O)NO)cn1)c1cc2nc(-c3ccc(N)cc3)nc(N3CCOCC3)c2s1` [Compound 272], for which the IC50 in experiment [1] and in experiment [2] was less than 0.1 µM throughout.
For `Cc1ncc(-c2nc(N3CCOCC3)c3sc(CN(CCO)c4ncc(C(=O)NO)cn4)cc3n2)s1` [Compound 312], the IC50 in experiment [1] was 0.1 to 1 µM; in experiment [2], less than 0.1 µM.
In the same order, the values of `CCCc1nc2cc(/C=C/C(=O)NO)ccc2n1CCNCc1cc2nc(-c3ccc(NC)nc3)nc(N3CCOCC3)c2s1` [Compound 323] are less than 0.1 µM and 0.1 to 1 µM.
In the same order, the values of `CN(Cc1cc2nc(-c3cnc(OCc4ccccc4)nc3)nc(N3CCOCC3)c2s1)c1ncc(C(=O)NO)cn1` [Compound 266] are 0.1 to 1 µM and less than 0.1 µM.
The matching figures for `CN(Cc1cc2nc(-c3ccc4c(c3)CCN4)nc(N3CCOCC3)c2s1)c1ncc(C(=O)NO)cn1` [Compound 193]: greater than 10 µM and less than 0.1 µM.
`CN(Cc1cc2nc(-c3cccc4[nH]c(=O)sc34)nc(N3CCOCC3)c2s1)c1ncc(C(=O)NO)cn1` [Compound 317]: the IC50 in experiment [1] and in experiment [2] was less than 0.1 µM each time.
On to `CN(Cc1cc2nc(-c3cccc(C(=O)O)c3)nc(N3CCOCC3)c2s1)c1ncc(C(=O)NO)cn1` [Compound 303], for which the IC50 in experiment [1] was 0.1 to 1 µM; in experiment [2], less than 0.1 µM.
Take `C/C(=N/O)c1cccc(-c2nc(N3CCOCC3)c3sc(CN(C)c4ncc(C(=O)NO)cn4)cc3n2)c1` [Compound 299]: the IC50 was 0.1 to 1 µM in experiment [1] and less than 0.1 µM in experiment [2].
In the same order, the values of `CN(Cc1cc2nc(-c3cccc4[nH]ncc34)nc(N3CCOCC3)c2s1)c1ncc(/C=C/C(=O)NO)cn1` [Compound 75] are less than 0.1 µM and 0.1 to 1 µM.
In the case of `CN(Cc1cc2nc(-c3cccc(CCO)c3)nc(N3CCOCC3)c2s1)c1ncc(C(=O)NO)cn1` [Compound 306], the concentration for half-maximal inhibition (IC50) in experiment [1] is 0.1 to 1 µM; in experiment [2], less than 0.1 µM.
With `Nc1ccc(-c2nc(N3CCOCC3)c3sc(Nc4ncc(C(=O)NO)cn4)cc3n2)cc1` [Compound 273], the concentration for half-maximal inhibition (IC50) is less than 0.1 µM in experiment [1] and 0.1 to 1 µM in experiment [2].
Consider `CS(=O)(=O)N1CCN(Cc2cc3nc(-c4cccc5[nH]ncc45)nc(NCCCCCC(=O)NO)c3s2)CC1` [Compound 35], for which the IC50 in experiment [1] is greater than 10 µM.
Consider `CCN(CC)c1nc(-c2cccc3[nH]ncc23)nc2cc(CN(C)c3ncc(C(=O)NO)cn3)sc12` [Compound 158], for which the IC50 was greater than 10 µM in experiment [1] and less than 0.1 µM in experiment [2].
Regarding `O=C(NO)c1cnc(N(CCCO)Cc2cc3nc(-c4cccc5[nH]ncc45)nc(N4CCOCC4)c3s2)nc1` [Compound 91], the IC50 in experiment [1] and in experiment [2] was less than 0.1 µM each time.
With `CNc1ccc(-c2nc(N3CCOCC3)c3sc(C(C)(C)N(C)c4ncc(C(=O)NO)cn4)cc3n2)cn1` [Compound 241], the 50% inhibitory concentration (IC50) in experiment [1] is 0.1 to 1 µM; in experiment [2], less than 0.1 µM.
For `CN(Cc1cc2nc(-c3ccc(OCc4ccccc4)nc3)nc(N3CCOCC3)c2s1)c1ncc(C(=O)NO)cn1` [Compound 260], the figures for the IC50 in experiment [1] and in experiment [2] were greater than 10 µM and less than 0.1 µM, respectively.
The matching figures for `CC(C)OC(=O)Nc1ccc(-c2nc(N3CCOCC3)c3sc(CN(C)c4ncc(C(=O)NO)cn4)cc3n2)cc1` [Compound 287]: greater than 10 µM and less than 0.1 µM.
`CN(Cc1cc2nc(-c3cccc4[nH]c(=O)[nH]c34)nc(N3CCOCC3)c2s1)c1ncc(C(=O)NO)cn1` [Compound 316] registered a concentration for half-maximal inhibition (IC50) in experiment [1] of less than 0.1 µM.
With `CN(c1ncc(C(=O)NO)cn1)C(C)(C)c1cc2nc(-c3ccc(N)cc3)nc(N3CCOCC3)c2s1` [Compound 270], the IC50 in experiment [2] was less than 0.1 µM.
In the case of `CS(=O)(=O)N1CCN(Cc2cc3nc(-c4cccc5[nH]ncc45)nc(NCCCCCCC(=O)NO)c3s2)CC1` [Compound 36], the IC50 in experiment [1] was greater than 10 µM.
In the case of `CN(Cc1cc2nc(-c3ccc4c(c3)OCCN4)nc(N3CCOCC3)c2s1)c1ncc(C(=O)NO)cn1` [Compound 191], the IC50 in experiment [2] was less than 0.1 µM.
Regarding `CS(=O)(=O)N1CCN(Cc2cc3nc(-c4cccc5[nH]ncc45)nc(NCCCCC(=O)NO)c3s2)CC1` [Compound 34], the 50% inhibitory concentration (IC50) in experiment [1] is greater than 10 µM.

The IC50 is the concentration needed to halve the response being measured. The low end stands for inhibition by little substance, the high end for a need for much substance.
